Molecular target: Aβ42 (Homo sapiens, UniProt P05067)
Assay: Th-T (thioflavin-T) assay of Aβ42 aggregation
Format: biochemical
Details: for Th-T assay plate reading, mean of three wells (Supplementary Fig. 47): source data, Ab alone and No Ab as controls

Aβ42, sequence (P05067 672-713): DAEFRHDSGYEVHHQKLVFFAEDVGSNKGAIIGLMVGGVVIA

For `C=C1CCC2C(C)(CCC=C(C)C)C(O)CCC2(C)C1Cc1c(O)c(C)c(C)oc1=O` (stereo not drawn) [Compound 9, higginsianin B], the “Th-T fluorescence, mean of three wells” value (Aβ42 aggregation time course, reading M117) was 2.792, the “Th-T fluorescence, mean of three wells” value (Aβ42 aggregation time course, reading M118) was 2.807 and the “Th-T fluorescence, mean of three wells” value (Aβ42 aggregation time course, reading M119) was 2.796. For the same compound, the “Th-T fluorescence, mean of three wells” value (Aβ42 aggregation time course, reading M120) was 2.799, the “Th-T fluorescence, mean of three wells” value (Aβ42 aggregation time course, reading M121) was 2.791 and the “Th-T fluorescence, mean of three wells” value (Aβ42 aggregation time course, reading M122) was 2.801. The “Th-T fluorescence, mean of three wells” value (Aβ42 aggregation time course, reading M123) was 2.8089, the “Th-T fluorescence, mean of three wells” value (Aβ42 aggregation time course, reading M124) was 2.764 and the “Th-T fluorescence, mean of three wells” value (Aβ42 aggregation time course, reading M125) was 2.798. The “Th-T fluorescence, mean of three wells” value (Aβ42 aggregation time course, reading M126) was 2.7918, the “Th-T fluorescence, mean of three wells” value (Aβ42 aggregation time course, reading M127) was 2.782 and the “Th-T fluorescence, mean of three wells” value (Aβ42 aggregation time course, reading M128) was 2.756. For the same compound, the “Th-T fluorescence, mean of three wells” value (Aβ42 aggregation time course, reading M129) was 2.788, the “Th-T fluorescence, mean of three wells” value (Aβ42 aggregation time course, reading M130) was 2.772 and the “Th-T fluorescence, mean of three wells” value (Aβ42 aggregation time course, reading M131) was 2.794. For the same compound, the “Th-T fluorescence, mean of three wells” value (Aβ42 aggregation time course, reading M132) was 2.756, the “Th-T fluorescence, mean of three wells” value (Aβ42 aggregation time course, reading M133) was 2.787 and the “Th-T fluorescence, mean of three wells” value (Aβ42 aggregation time course, reading M134) was 2.786. For the same compound, the “Th-T fluorescence, mean of three wells” value (Aβ42 aggregation time course, reading M135) was 2.766, the “Th-T fluorescence, mean of three wells” value (Aβ42 aggregation time course, reading M136) was 2.788 and the “Th-T fluorescence, mean of three wells” value (Supplementary Fig. 47, reading M137) was 2.782. For the same compound, the “Th-T fluorescence, mean of three wells” value (Supplementary Fig. 47, reading M138) was 2.781, the “Th-T fluorescence, mean of three wells” value (Supplementary Fig. 47, reading M139) was 2.778 and the “Th-T fluorescence, mean of three wells” value (Supplementary Fig. 47, reading M140) was 2.777. For the same compound, the “Th-T fluorescence, mean of three wells” value (Supplementary Fig. 47, reading M141) was 2.762, the “Th-T fluorescence, mean of three wells” value (Supplementary Fig. 47, reading M142) was 2.77 and the “Th-T fluorescence, mean of three wells” value (Supplementary Fig. 47, reading M143) was 2.794. For the same compound, the “Th-T fluorescence, mean of three wells” value (Supplementary Fig. 47, reading M144) was 2.791, the “Th-T fluorescence, mean of three wells” value (Supplementary Fig. 47, reading M145) was 2.767 and the “Th-T assay plate reading, mean of three wells (Supplementary Fig. 47)” value (shortened to “Th-T assay plate reading, mean”) (measurement M1) was 0.2408. The “Th-T assay plate reading, mean” value (measurement M2) was 0.2372, the “Th-T assay plate reading, mean” value (measurement M3) was 0.2484 and the “Th-T assay plate reading, mean” value (measurement M4) was 0.2764. The “Th-T assay plate reading, mean” value (measurement M5) was 0.3211, the “Th-T assay plate reading, mean” value (measurement M6) was 0.3818 and the “Th-T assay plate reading, mean” value (measurement M7) was 0.386. For the same compound, the “Th-T assay plate reading, mean” value (measurement M8) was 0.4241, the “Th-T assay plate reading, mean” value (measurement M9) was 0.4754 and the “Th-T assay plate reading, mean” value (measurement M10) was 0.5222. For the same compound, the “Th-T assay plate reading, mean” value (measurement M11) was 0.5741, the “Th-T assay plate reading, mean” value (measurement M12) was 0.6179 and the “Th-T assay plate reading, mean” value (measurement M13) was 0.6443. The “Th-T assay plate reading, mean” value (measurement M14) was 0.6952, the “Th-T assay plate reading, mean” value (measurement M15) was 0.7748 and the “Th-T assay plate reading, mean” value (measurement M16) was 1.021. The “Th-T fluorescence, mean of three wells” value (reading M17, Supplementary Fig. 47 source data) was 1.394, the “Th-T fluorescence, mean of three wells” value (time-course reading M97, Supplementary Fig. 47 source data) was 2.816 and the “Th-T fluorescence, mean of three wells” value (time-course reading M98, Supplementary Fig. 47 source data) was 2.842. For the same compound, the “Th-T fluorescence, mean of three wells” value (time-course reading M99, Supplementary Fig. 47 source data) was 2.834, the “Th-T fluorescence, mean of three wells” value (time-course reading M100, Supplementary Fig. 47 source data) was 2.825 and the “Th-T fluorescence, mean of three wells” value (time-course reading M101, Supplementary Fig. 47 source data) was 2.818. The “Th-T fluorescence, mean of three wells” value (time-course reading M102, Supplementary Fig. 47 source data) was 2.832, the “Th-T fluorescence, mean of three wells” value (time-course reading M103, Supplementary Fig. 47 source data) was 2.816 and the “Th-T fluorescence, mean of three wells” value (time-course reading M104, Supplementary Fig. 47 source data) was 2.8075. For the same compound, the “Th-T fluorescence, mean of three wells” value (time-course reading M105, Supplementary Fig. 47 source data) was 2.8016, the “Th-T fluorescence, mean of three wells” value (time-course reading M106, Supplementary Fig. 47 source data) was 2.808 and the “Th-T fluorescence, mean of three wells” value (time-course reading M107, Supplementary Fig. 47 source data) was 2.794. For the same compound, the “Th-T fluorescence, mean of three wells” value (time-course reading M108, Supplementary Fig. 47 source data) was 2.811, the “Th-T fluorescence, mean of three wells” value (time-course reading M109, Supplementary Fig. 47 source data) was 2.783 and the “Th-T fluorescence, mean of three wells” value (time-course reading M110, Supplementary Fig. 47 source data) was 2.799. The “Th-T fluorescence, mean of three wells” value (time-course reading M111, Supplementary Fig. 47 source data) was 2.807, the “Th-T fluorescence, mean of three wells” value (time-course reading M112, Supplementary Fig. 47 source data) was 2.812 and the “Th-T fluorescence, mean of three wells” value (time-course reading M113, Supplementary Fig. 47 source data) was 2.81. The “Th-T fluorescence, mean of three wells” value (time-course reading M114, Supplementary Fig. 47 source data) was 2.8, the “Th-T fluorescence, mean of three wells” value (time-course reading M115, Supplementary Fig. 47 source data) was 2.812 and the “Th-T fluorescence, mean of three wells” value (time-course reading M116, Supplementary Fig. 47 source data) was 2.796.

— article PMC7156458, “Synthetic biology based construction of biological activity-related library of fungal decalin-containing diterpenoid pyrones” (Nature Communications, 2020)
